Test: Administration of memantine in 2 mg weekly increments to a patient suffering from glaucoma, tolerance observed
Assay type: in vivo
Conditions: 2 mg tablet for one week
Procedure: In certain cases, the initial administration of 5 mg of memantine, or the increase in the dosage by 5 mg increments, may be more than can be tolerated by the patient. […] The term adverse event refers to any undesirable side effect or toxic effect associated with memantine. In relation to embodiments of this type, it is preferable that the dose of memantine is increase by an increment of about 0.25 to about 0.5 mg each day until the maintenance dose is reached.
(§1) To a patient suffering from glaucoma, is administered a tablet comprising 2 mg of memantine is administered for one week. The patient then receives a tablet comprising a 4 mg dose for one week. The dose is increased by 2 mg each week until a 10 mg dose is reached at the beginning of the fifth week. […] The tablet comprising 10 mg of memantine is administered daily for as long as the drug is needed.
as §1, with “20” for “10”, “tenth” for “fifth”

CC12CC3CC(C)(C1)CC(N)(C3)C2 [memantine]
tolerance of the drug (dose increased by 2 mg each week until 10 mg at beginning of fifth week, first four weeks of administration): improved tolerance | tolerance of the drug (dose increased by 2 mg each week until 20 mg at beginning of tenth week, first nine weeks of administration): improved tolerance
